Earlier results as cited in patent US20060240450A1, “Genetic analysis for stratification of cancer risk” (priority 2001, published 2006).
Structures can show the parent of a compound that is named as a salt.

Test system: uterus and breast tissue
Settings: preliminary clinical data (through 30 months)

Structure (SMILES): O=C(c1ccc(OCCN2CCCCC2)cc1)c1c(-c2ccc(O)cc2)sc2cc(O)ccc12 [Raloxifene HCl, methanone, [6-hydroxy-2-(4-hydroxyphenyl)benzo[b]thien-3-yl]-[4-[2-(1-piperidinyl)ethoxy]phenyl]-hydrochloride]
- estrogen-like effects on uterus and breast tissue: lacks estrogen-like effects
